Experimental data published in US12110276B2 (Genentech, Inc., priority 2021, dated 2024).

What was measured:
TEAD3 = TEAD3 (Homo sapiens (Human), UniProt Q99594); test: TR-FRET lipid pocket probe competition assay (Lipid HTRF), TEAD3; format: binding; conditions: 4 hours pre-incubation; read-out: Lipid HTRF TEAD3 IC50
Description: His-tagged TEAD proteins are pre-incubated with TEAD project compounds for 30 minutes or 4 hours at room temperature. Biotinylated lipid pocket probes are then added to the TEAD/Compound mixture and incubated for 60 minutes at room temperature. The lipid pocket probe competes with the test compound for the TEAD lipid pocket until equilibrium is reached. After 60 minutes, Europium labelled anti-His (Perkin Elmer #AD0110) and XL665 labelled streptavidin (CIS Bio 610SAXAC) are added to the TEAD/test compound/lipid pocket mixture and incubated for 30 minutes or 4 hours. […] If a TEAD lipid pocket binder such as binds and displaces the lipid pocket probe, the disruption of the TEAD:probe interaction results in a decrease in TR-FRET signal. The potency of compounds as TEAD lipid pocket binders is determined by IC50 value generated using a non-linear 4 parameter curve fit.

TEAD2 = TEAD2 (Homo sapiens (Human), UniProt Q15562);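 note: TR-FRET competition assay with His-tagged TEAD protein and a biotinylated lipid pocket probe, compound pre-incubated 30 min or 4 h at room temperature, displacement lowers signal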
TEAD1 = TEAD1 (Homo sapiens (Human), UniProt P28347); test: TR-FRET lipid pocket probe competition assay (Lipid HTRF), TEAD1; format: binding; conditions: 4 hours pre-incubation; read-out: Lipid HTRF TEAD1 IC50;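 note: His-tagged TEAD1 with biotinylated probe, detected via Europium anti-His and XL665 streptavidin, probe displacement lowers TR-FRET signal, IC50 from four-parameter nonlinear fit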
TEAD4 = TEAD4 (Homo sapiens (Human), UniProt Q15561); test: TR-FRET lipid pocket probe competition assay (Lipid HTRF), TEAD4; format: binding; conditions: 4 hours pre-incubation; read-out: Lipid HTRF TEAD4 IC50;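 note: His-tagged TEAD4 with biotinylated lipid-pocket probe, read by Europium anti-His and XL665 streptavidin, where probe displacement lowers the TR-FRET signal, IC50 from a four-parameter fit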
Sequence of TEAD4 (Q15561 whole entry, species assumed): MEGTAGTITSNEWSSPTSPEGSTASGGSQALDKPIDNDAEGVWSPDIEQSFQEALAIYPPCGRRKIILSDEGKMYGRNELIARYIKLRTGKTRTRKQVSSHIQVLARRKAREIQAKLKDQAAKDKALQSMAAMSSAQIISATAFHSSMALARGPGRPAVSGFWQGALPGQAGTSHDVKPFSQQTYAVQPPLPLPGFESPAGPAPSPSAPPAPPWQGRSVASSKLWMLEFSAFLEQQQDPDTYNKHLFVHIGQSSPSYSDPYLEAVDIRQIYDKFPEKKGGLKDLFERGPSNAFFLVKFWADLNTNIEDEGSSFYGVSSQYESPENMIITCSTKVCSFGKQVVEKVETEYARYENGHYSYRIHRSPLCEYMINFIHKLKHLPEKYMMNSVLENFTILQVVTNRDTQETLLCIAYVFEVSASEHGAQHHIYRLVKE

Sequence of TEAD2 (Q15562 whole entry, species assumed): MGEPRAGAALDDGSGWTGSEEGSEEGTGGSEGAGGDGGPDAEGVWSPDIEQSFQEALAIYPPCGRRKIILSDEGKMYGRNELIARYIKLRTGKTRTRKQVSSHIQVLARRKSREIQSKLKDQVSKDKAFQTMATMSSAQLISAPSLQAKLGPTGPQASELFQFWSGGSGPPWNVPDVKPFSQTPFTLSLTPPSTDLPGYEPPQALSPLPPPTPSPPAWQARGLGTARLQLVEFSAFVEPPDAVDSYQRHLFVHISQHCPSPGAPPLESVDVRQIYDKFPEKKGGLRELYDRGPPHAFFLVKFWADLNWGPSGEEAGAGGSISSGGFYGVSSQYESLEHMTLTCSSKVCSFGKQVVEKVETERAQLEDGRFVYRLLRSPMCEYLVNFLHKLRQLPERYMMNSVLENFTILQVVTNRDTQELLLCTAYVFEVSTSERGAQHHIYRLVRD
Sequence of TEAD1 (P28347 whole entry, species assumed): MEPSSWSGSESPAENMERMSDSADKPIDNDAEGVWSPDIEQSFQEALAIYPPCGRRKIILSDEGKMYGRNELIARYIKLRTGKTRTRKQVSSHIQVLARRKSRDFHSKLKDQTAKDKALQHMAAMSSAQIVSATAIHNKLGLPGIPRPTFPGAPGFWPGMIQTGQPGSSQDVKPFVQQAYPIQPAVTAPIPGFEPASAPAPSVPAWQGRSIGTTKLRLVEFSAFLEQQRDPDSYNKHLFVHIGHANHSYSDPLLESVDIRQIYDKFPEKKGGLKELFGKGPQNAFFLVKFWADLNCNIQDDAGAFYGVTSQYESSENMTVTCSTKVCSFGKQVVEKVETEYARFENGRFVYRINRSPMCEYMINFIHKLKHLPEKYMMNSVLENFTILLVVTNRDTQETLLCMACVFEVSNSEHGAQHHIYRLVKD
Sequence of TEAD3 (Q99594 whole entry, species assumed): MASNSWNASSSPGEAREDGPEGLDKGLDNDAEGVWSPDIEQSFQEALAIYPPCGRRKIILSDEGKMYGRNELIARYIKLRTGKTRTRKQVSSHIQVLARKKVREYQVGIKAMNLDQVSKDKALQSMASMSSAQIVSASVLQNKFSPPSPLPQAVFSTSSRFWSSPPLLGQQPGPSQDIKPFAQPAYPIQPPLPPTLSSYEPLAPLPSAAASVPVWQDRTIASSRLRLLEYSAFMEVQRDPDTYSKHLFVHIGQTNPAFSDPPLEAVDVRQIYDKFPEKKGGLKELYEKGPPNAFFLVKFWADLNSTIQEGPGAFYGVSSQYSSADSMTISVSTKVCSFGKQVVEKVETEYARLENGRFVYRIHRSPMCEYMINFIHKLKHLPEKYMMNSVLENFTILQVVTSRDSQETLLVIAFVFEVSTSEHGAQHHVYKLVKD

SMILES: C=CC(=O)NCc1nn(-c2ccc(OC(F)(F)F)cc2)c2nccc(OCCO)c12 [Compound 126, N-((4-(2-Hydroxyethoxy)-1-(4-(trifluoromethoxy)phenyl)-1H-pyrazolo[3,4-b]pyridin-3-yl)methyl)acrylamide]
- IC50 (TEAD3): 50000 nM
- IC50 (TEAD2): 120 nM
- IC50 (TEAD1): 22 nM
- IC50 (TEAD4): 4.4 nM

SMILES: C=CC(=O)NCc1nn(-c2ccc(OC(F)(F)F)cc2)c2nccc(N3CC(C)(O)C3)c12 [Compound 74, N-((4-(3-hydroxy-3-methylazetidin-1-yl)-1-(4-(trifluoromethoxy)phenyl)-1H-pyrazolo[3,4-b]pyridin-3-yl)methyl)acrylamide]
- IC50 (TEAD3): 4100 nM
- IC50 (TEAD2): 140 nM
- IC50 (TEAD1): 32 nM
- IC50 (TEAD4): 4.8 nM

SMILES: C=C(F)C(=O)N1CC(c2nn(-c3ccc(OC(F)(F)F)cc3)c3nccc(-c4cnn(CC(N)=O)c4)c23)C1 [Compound 181, 2-(4-(3-(1-(2-fluoroacryloyl)azetidin-3-yl)-1-(4-(trifluoromethoxy)phenyl)-1H-pyrazolo[3,4-b]pyridin-4-yl)-1H-pyrazol-1-yl)acetamide]
- IC50 (TEAD3): 50000 nM
- IC50 (TEAD2): 62 nM
- IC50 (TEAD1): 24 nM
- IC50 (TEAD4): 37 nM

SMILES: C=C(F)C(=O)N1CC(c2nn(-c3ccc(OC(F)(F)F)cc3)c3nccc(N4CC(O)(CO)C4)c23)C1 [Compound 75, 2-Fluoro-1-(3-(4-(3-hydroxy-3-(hydroxymethyl)azetidin-1-yl)-1-(4-(trifluoromethoxy)phenyl)-1H-pyrazolo[3,4-b]pyridin-3-yl)azetidin-1-yl)prop-2-en-1-one]
- IC50 (TEAD3): 1100 nM
- IC50 (TEAD2): 19 nM
- IC50 (TEAD1): 45 nM
- IC50 (TEAD4): 5.2 nM

SMILES: C=CC(=O)NCc1nn(-c2ccc(OC(F)(F)F)cc2)c2ncccc12 [Compound 188, N-((1-(4-(trifluoromethoxy)phenyl)-1H-pyrazolo[3,4-b]pyridin-3-yl)methyl)acrylamide]
- IC50 (TEAD3): 150 nM
- IC50 (TEAD2): 84 nM
- IC50 (TEAD1): 7.2 nM
- IC50 (TEAD4): 7.3 nM

SMILES: C=CC(=O)N(C)Cc1nn(-c2ccc(OC(F)(F)F)cc2)c2nccc(CO)c12 [Compound 55, N-((4-(Hydroxymethyl)-1-(4-(trifluoromethoxy)phenyl)-1H-pyrazolo[3,4-b]pyridin-3-yl)methyl)-N-methylacrylamide]
- IC50 (TEAD3): 160 nM
- IC50 (TEAD2): 120 nM
- IC50 (TEAD1): 17 nM
- IC50 (TEAD4): 12 nM

SMILES: O=C(/C=C/CF)N1CC(c2nn(-c3ccc(OC(F)(F)F)cc3)c3ccnc(N4CC(O)C4)c23)C1 [Compound 137, (E)-4-fluoro-1-(3-(4-(3-hydroxyazetidin-1-yl)-1-(4-(trifluoromethoxy)phenyl)-1H-pyrazolo[4,3-c]pyridin-3-yl)azetidin-1-yl)but-2-en-1-one]
- IC50 (TEAD3): 5200 nM
- IC50 (TEAD2): 360 nM
- IC50 (TEAD1): 72 nM
- IC50 (TEAD4): 26 nM

SMILES: C=C(F)C(=O)N1CC(c2nn(-c3ccc(OC(F)(F)F)cc3)c3nccc(-c4cnn(CCS(C)(=O)=O)c4)c23)C1 [Compound 179, 2-fluoro-1-(3-(4-(1-(2-(methylsulfonyl)ethyl)-1H-pyrazol-4-yl)-1-(4-(trifluoromethoxy)phenyl)-1H-pyrazolo[3,4-b]pyridin-3-yl)azetidin-1-yl)prop-2-en-1-one]
- IC50 (TEAD3): 50000 nM
- IC50 (TEAD2): 650 nM
- IC50 (TEAD1): 32 nM
- IC50 (TEAD4): 17 nM

SMILES: C=CC(=O)NCc1nn(-c2ccc(OC(F)(F)F)cc2)c2nccc(-c3c[nH]nn3)c12 [Compound 51, N-((4-(1H-1,2,3-Triazol-4-yl)-1-(4-(trifluoromethoxy)phenyl)-1H-pyrazolo[3,4-b]pyridin-3-yl)methyl)acrylamide]
- IC50 (TEAD3): 510 nM
- IC50 (TEAD2): 120 nM
- IC50 (TEAD1): 32 nM
- IC50 (TEAD4): 15 nM

SMILES: C=C(F)C(=O)NCc1nn(-c2ccc(OC(F)(F)F)cc2)c2nccc(CO)c12 [Compound 68, 2-Fluoro-N-((4-(hydroxymethyl)-1-(4-(trifluoromethoxy)phenyl)-1H-pyrazolo[3,4-b]pyridin-3-yl)methyl)acrylamide]
- IC50 (TEAD3): 980 nM
- IC50 (TEAD2): 550 nM
- IC50 (TEAD1): 71 nM
- IC50 (TEAD4): 140 nM

SMILES: C=CC(=O)NCc1nn(-c2ccc(OC(F)(F)F)cc2)c2nccc(N3CC(F)C3)c12 [Compound 84, N-((4-(3-Fluoroazetidin-1-yl)-1-(4-(trifluoromethoxy)phenyl)-1H-pyrazolo[3,4-b]pyridin-3-yl)methyl)acrylamide]
- IC50 (TEAD3): 50000 nM
- IC50 (TEAD2): 89 nM
- IC50 (TEAD1): 23 nM
- IC50 (TEAD4): 6.3 nM

SMILES: C=C(F)C(=O)N1CC(c2nn(-c3ccc(OC(F)(F)F)cc3F)c3nccc(CO)c23)C1 [Compound 185, 2-fluoro-1-[3-[1-[2-fluoro-4-(trifluoromethoxy)phenyl]-4-(hydroxymethyl)pyrazolo[3,4-b]pyridin-3-yl]azetidin-1-yl]prop-2-en-1-one]
- IC50 (TEAD3): 260 nM
- IC50 (TEAD2): 120 nM
- IC50 (TEAD1): 57 nM
- IC50 (TEAD4): 31 nM

SMILES: O=C(/C=C/CO)N1CC(c2nn(-c3ccc(OC(F)(F)F)cc3)c3nccc(Cl)c23)C1 [Compound 127, (E)-1-(3-(4-Chloro-1-(4-(trifluoromethoxy)phenyl)-1H-pyrazolo[3,4-b]pyridin-3-yl)azetidin-1-yl)-4-hydroxybut-2-en-1-one]
- IC50 (TEAD3): 13 nM
- IC50 (TEAD2): 17 nM
- IC50 (TEAD1): 7.9 nM
- IC50 (TEAD4): 3.3 nM

SMILES: O=C(/C=C/CO)N1CC(c2nn(-c3ccc(OC(F)(F)F)cc3)c3nccc(N4CC(O)C4)c23)C1 [Compound 70, (E)-4-Hydroxy-1-(3-(4-(3-hydroxyazetidin-1-yl)-1-(4-(trifluoromethoxy)phenyl)-1H-pyrazolo[3,4-b]pyridin-3-yl)azetidin-1-yl)but-2-en-1-one]
- IC50 (TEAD3): 140 nM
- IC50 (TEAD2): 37 nM
- IC50 (TEAD1): 17 nM
- IC50 (TEAD4): 3.6 nM

SMILES: C=CC(=O)NCc1nn(-c2ccc(OC(F)(F)F)cc2)c2nccc(C(=O)NC)c12 [Compound 30, 3-(Acrylamidomethyl)-N-methyl-1-(4-(trifluoromethoxy)phenyl)-1H-pyrazolo[3,4-b]pyridine-4-carboxamide]
- IC50 (TEAD3): 2600 nM
- IC50 (TEAD2): 1500 nM
- IC50 (TEAD1): 490 nM
- IC50 (TEAD4): 180 nM

SMILES: C=CC(=O)NCc1nn(-c2ccc(OC(F)F)cc2)c2nccc(CO)c12 [Compound 140, N-((1-(4-(difluoromethoxy)phenyl)-4-(hydroxymethyl)-1H-pyrazolo[3,4-b]pyridin-3-yl)methyl)acrylamide]
- IC50 (TEAD3): 4400 nM
- IC50 (TEAD2): 720 nM
- IC50 (TEAD1): 230 nM
- IC50 (TEAD4): 440 nM

SMILES: N#Cc1ccnc2c1c(C1CN(C(=O)/C=C/CO)C1)nn2-c1ccc(OC(F)(F)F)cc1 [Compound 79]
- IC50 (TEAD3): 20 nM
- IC50 (TEAD2): 60 nM
- IC50 (TEAD1): 19 nM
- IC50 (TEAD4): 6.8 nM

SMILES: C=C(F)C(=O)N1CC(c2nn(-c3ccc(OC(F)(F)F)cc3)c3nccc(N4CC(CO)(CO)C4)c23)C1 [Compound 142, 1-(3-(4-(3,3-Bis(hydroxymethyl)azetidin-1-yl)-1-(4-(trifluoromethoxy)phenyl)-1H-pyrazolo[3,4-b]pyridin-3-yl)azetidin-1-yl)-2-fluoroprop-2-en-1-one]
- IC50 (TEAD3): 50000 nM
- IC50 (TEAD2): 330 nM
- IC50 (TEAD1): 150 nM
- IC50 (TEAD4): 9 nM

SMILES: C=CC(=O)NCc1nn(-c2ccc(OC(F)(F)F)cc2)c2nccc(N3CC(NC(C)=O)C3)c12 [Compound 116, N-((4-(3-acetamidoazetidin-1-yl)-1-(4-(trifluoromethoxy)phenyl)-1H-pyrazolo[3,4-b]pyridin-3-yl)methyl)acrylamide]
- IC50 (TEAD3): 14000 nM
- IC50 (TEAD2): 75 nM
- IC50 (TEAD1): 27 nM
- IC50 (TEAD4): 11 nM

SMILES: O=C(/C=C\Cl)NCc1nn(-c2ccc(OC(F)(F)F)cc2)c2nccc([C@@H](O)CO)c12 [Compound 26, (R,Z)-3-chloro-N-((4-(1,2-dihydroxyethyl)-1-(4-(trifluoromethoxy)phenyl)-1H-pyrazolo[3,4-b]pyridin-3-yl)methyl)acrylamide]
- IC50 (TEAD3): 50000 nM
- IC50 (TEAD2): 160 nM
- IC50 (TEAD1): 140 nM
- IC50 (TEAD4): 14 nM

SMILES: C=C(F)C(=O)N1CC(c2nn(-c3ccc(OC(F)(F)F)cc3)c3nccc(-n4ccnc4)c23)C1 [Compound 64, 1-(3-(4-(1H-Imidazol-1-yl)-1-(4-(trifluoromethoxy)phenyl)-1H-pyrazolo[3,4-b]pyridin-3-yl)azetidin-1-yl)-2-fluoroprop-2-en-1-one]
- IC50 (TEAD3): 1300 nM
- IC50 (TEAD2): 170 nM
- IC50 (TEAD1): 23 nM
- IC50 (TEAD4): 21 nM

SMILES: C=CC(=O)NCc1nn(-c2ccc(S(F)(F)(F)(F)F)cc2)c2cccc(C#N)c12 [Compound 14, N-((4-cyano-1-(4-(pentafluoro-λ^6-sulfanyl)phenyl)-1H-indazol-3-yl)methyl)acrylamide]
- IC50 (TEAD3): 140 nM
- IC50 (TEAD2): 50000 nM
- IC50 (TEAD1): 84 nM
- IC50 (TEAD4): 33 nM

SMILES: C=CC(=O)N(C)Cc1nn(-c2ccc(OC(F)(F)F)cc2)c2nccc([C@@H](O)CO)c12 [Compound 93, (R)-N-((4-(1,2-dihydroxyethyl)-1-(4-(trifluoromethoxy)phenyl)-1H-pyrazolo[3,4-b]pyridin-3-yl)methyl)-N-methylacrylamide]
- IC50 (TEAD3): 570 nM
- IC50 (TEAD2): 710 nM
- IC50 (TEAD1): 170 nM
- IC50 (TEAD4): 22 nM

SMILES: C=CC(=O)NCc1nn(-c2ccc(OC(F)(F)F)cc2)c2nccc(N3CC(N)C3)c12 [Compound 92, N-((4-(3-aminoazetidin-1-yl)-1-(4-(trifluoromethoxy)phenyl)-1H-pyrazolo[3,4-b]pyridin-3-yl)methyl)acrylamide]
- IC50 (TEAD3): 13000 nM
- IC50 (TEAD2): 780 nM
- IC50 (TEAD1): 110 nM
- IC50 (TEAD4): 52 nM

SMILES: C=CC(=O)NCc1nn(-c2ccc(OC(F)(F)F)cc2)c2nccc(NC(=O)CO)c12 [Compound 24, N-((4-(2-Hydroxyacetamido)-1-(4-(trifluoromethoxy)phenyl)-1H-pyrazolo[3,4-b]pyridin-3-yl)methyl)acrylamide]
- IC50 (TEAD3): 405 nM
- IC50 (TEAD2): 130 nM
- IC50 (TEAD1): 18.5 nM
- IC50 (TEAD4): 45.5 nM
